In patent publication US8034843B2, “Compositions comprising cannabinoids for treatment of nausea, vomiting, emesis, motion sickness or like conditions” (priority 2002, dated 2011):

Assays:
[1] = Stability of purified CBDA in solution; type: physicochemical
Description: This undesirable decarboxylation of the purified material might be minimised by manipulation of CBDA at sub-ambient temperatures.

[2] = target: CB2 (Peripheral receptors) (Homo sapiens, UniProt P34972); settings: cited from earlier work
Sequence of CB2 (Peripheral receptors) (P34972 whole entry, species assumed): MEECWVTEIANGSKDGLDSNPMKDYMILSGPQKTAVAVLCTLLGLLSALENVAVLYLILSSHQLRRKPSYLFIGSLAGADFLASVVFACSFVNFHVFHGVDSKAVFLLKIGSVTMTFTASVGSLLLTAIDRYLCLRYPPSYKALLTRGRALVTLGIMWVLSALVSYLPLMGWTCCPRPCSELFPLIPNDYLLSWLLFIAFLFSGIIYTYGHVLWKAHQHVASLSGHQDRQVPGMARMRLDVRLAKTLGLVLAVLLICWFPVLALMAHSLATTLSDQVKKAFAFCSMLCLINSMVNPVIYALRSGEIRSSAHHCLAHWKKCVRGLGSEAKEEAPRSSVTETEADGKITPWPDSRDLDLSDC

| SMILES | decarboxylation in solution (CBDA→CBD+CO2) [1] | binding to CB2 receptors [2] |
| --- | --- | --- |
| C=C(C)[C@@H]1CCC(C)=C[C@H]1c1c(O)cc(CCCCC)c(C(=O)O)c1O [CBDA] | slowly decarboxylates in solution | – |
| CCCCCc1cc(O)c2c(c1)OC(C)(C)[C@@H]1CCC(C)=C[C@@H]21 [THC, delta^9-tetrahydrocannabinol] | – | bound with high avidity |
